The test system of one experiment is KM12-luc cells. As to the kind of experiment: Cell proliferation and growth inhibition assay (CCK-8) in KM12-luc. The format is cell-based. As to conditions: KM12-Luc, 72 h, KM12-luc cells, treated with test compounds for 72 hrs, CCK-8 viability; read-out: NTRK IC50 in KM12-luc. As to the method:
MV-4-11 and H1975 cells were obtained from the American Type Culture Collection and KM12-luc cells were obtained from JCRB Cell Bank. All cell lines were maintained at 37° C. with 5% C02, in media supplemented with 10% fetal bovine serum and penicillin (100 units/mL) and streptomycin (100 μg/mL). MV-4-11 cells were maintained in Iscove's Modified Dubecco's Medium, H1975 cells were cultured with RPMI 1640 media, and KM12-luc cells were maintained in Dulbecco's Modification of Eagle's Medium. CCK-8 reagent was obtained from Yeasen. Cell proliferation was assessed by CCK-8 assay (Yeasen) per the manufacturer's instructions. […] Cell viability was assayed by incubating the cells with CCK-8 reagent for 1-4 hrs. Absorbance was measured at OD450 using the Beckman DTX880. The data was calculated using GraphPad Prism version 6.01. The IC50 values were fitted using a non-linear regression model with a sigmoidal dose response.
Usually IC50 stands for the concentration that gives 50% inhibition. On to `CC(=O)Nc1cc(Nc2nc(-c3cn(C)c4ccccc34)c3occc3n2)ccc1N(C)CCN(C)C` [Compound 256a, N-(2-((2-(dimethylamino)ethyl)(methyl)amino)-5-((4-(1-methyl-1H-indol-3-yl)furo[3,2-d]pyrimidin-2-yl)amino)phenyl)acetamide], for which the IC50 stood at 447 nM.

With `CC(=O)Nc1cc(Nc2nc(-c3cn(C)c4ccccc34)c3occc3n2)cc(F)c1N(C)CCN(C)C` [Compound 256b, N-(2-((2-(dimethylamino)ethyl) (methyl)amino)-3-fluoro-5-((4-(1-methyl-1H-indol-3-yl)furo[3,2-d]pyrimidin-2-yl)amino)phenyl) acetamide], the IC50 was found to be 748 nM.

For `CCN(CCN(C)C)c1ccc(Nc2nc(-c3cn(C)c4ccccc34)c3occc3n2)cc1NC(C)=O` [Compound 256c, N-(2-((2-(dimethylamino)ethyl)(ethyl)amino)-5-((4-(1-methyl-1H-indol-3-yl)furo[3,2-d]pyrimidin-2-yl)amino)phenyl)acetamide], the IC50 was 587 nM.

As to `CCN(CCN(C)C)c1c(F)cc(Nc2nc(-c3cn(C)c4ccccc34)c3occc3n2)cc1NC(C)=O` [Compound 256d, N-(2-((2-(dimethylamino)ethyl)(ethyl)amino)-3-fluoro-5-((4-(1-methyl-1H-indol-3-yl)furo[3,2-d]pyrimidin-2-yl)amino)phenyl)acetamide], the IC50 came to 1000 nM.

`CC(=O)Nc1cc(Nc2nc3c(c(-c4cn(C)c5ccccc45)n2)COCC3)ccc1N(C)CCN(C)C` [Compound 257a, N-(2-((2-(dimethylamino)ethyl)(methyl)amino)-5-((4-(1-methyl-1H-indol-3-yl)-7,8-dihydro-5H-pyrano[4,3-d]pyrimidin-2-yl)amino)phenyl)acetamide]: the IC50 is above 10000 nM.

Take `CC(=O)Nc1cc(Nc2nc3c(c(-c4cn(C)c5ccccc45)n2)COCC3)cc(F)c1N(C)CCN(C)C` [Compound 257b, N-(2-((2-(dimethylamino)ethyl)(methyl)amino)-3-fluoro-5-((4-(1-methyl-1H-indol-3-yl)-7,8-dihydro-5H-pyrano[4,3-d]pyrimidin-2-yl)amino)phenyl)acetamide]: the IC50 was above 10000 nM.

On to `CCN(CCN(C)C)c1ccc(Nc2nc3c(c(-c4cn(C)c5ccccc45)n2)COCC3)cc1NC(C)=O` [Compound 257c, N-(2-((2-(dimethylamino)ethyl)(ethyl)amino)-5-((4-(1-methyl-1H-indol-3-yl)-7,8-dihydro-5H-pyrano[4,3-d]pyrimidin-2-yl)amino)phenyl)acetamide], for which the IC50 is above 10000 nM.

For the compound `CCN(CCN(C)C)c1c(F)cc(Nc2nc3c(c(-c4cn(C)c5ccccc45)n2)COCC3)cc1NC(C)=O` [Compound 257d, N-(2-((2-(dimethylamino)ethyl)(ethyl)amino)-3-fluoro-5-((4-(1-methyl-1H-indol-3-yl)-7,8-dihydro-5H-pyrano[4,3-d]pyrimidin-2-yl)amino)phenyl)acetamide], the IC50 is above 10000 nM.

`CC(=O)Nc1cc(Nc2nc3c(c(-c4cn(C)c5ccccc45)n2)CCO3)ccc1N(C)CCN(C)C` [Compound 258a, N-(2-((2-(dimethylamino)ethyl)(methyl)amino)-5-((4-(1-methyl-1H-indol-3-yl)-5,6-dihydrofuro[2,3-d]pyrimidin-2-yl)amino)phenyl)acetamide]: the IC50 is above 1000 nM.

In the case of `CC(=O)Nc1cc(Nc2nc3c(c(-c4cn(C)c5ccccc45)n2)CCO3)cc(F)c1N(C)CCN(C)C` [Compound 258b, N-(2-((2-(dimethylamino)ethyl)(methyl)amino)-3-fluoro-5-((4-(1-methyl-1H-indol-3-yl)-5,6-dihydrofuro[2,3-d]pyrimidin-2-yl)amino)phenyl)acetamide], the IC50 is above 1000 nM.

On to `CCN(CCN(C)C)c1ccc(Nc2nc3c(c(-c4cn(C)c5ccccc45)n2)CCO3)cc1NC(C)=O` [Compound 258c, N-(2-((2-(dimethylamino)ethyl)(ethyl)amino)-5-((4-(1-methyl-1H-indol-3-yl)-5,6-dihydrofuro[2,3-d]pyrimidin-2-yl)amino)phenyl)acetamide], for which the IC50 is above 1000 nM.

As to `CCN(CCN(C)C)c1c(F)cc(Nc2nc3c(c(-c4cn(C)c5ccccc45)n2)CCO3)cc1NC(C)=O` [Compound 258d, N-(2-((2-(dimethylamino)ethyl)(ethyl)amino)-3-fluoro-5-((4-(1-methyl-1H-indol-3-yl)-5,6-dihydrofuro[2,3-d]pyrimidin-2-yl)amino)phenyl)acetamide], the IC50 was above 1000 nM.

Turning to `CC(=O)Nc1cc(Nc2ncc(F)c(-c3c[nH]c4ccccc34)n2)ccc1N(C)CCN(C)C` [Compound 259a, N-(2-((2-(dimethylamino)ethyl)(methyl)amino)-5-((5-fluoro-4-(1H-indol-3-yl)pyrimidin-2-yl)amino)phenyl)acetamide], the IC50 came out at 65.7 nM.

As for `CC(=O)Nc1cc(Nc2ncc(F)c(-c3cn(-c4ncc(F)c(-c5c[nH]c6ccccc56)n4)c4ccccc34)n2)ccc1N(C)CCN(C)C` [Compound 259b, N-(2-((2-(dimethylamino)ethyl)(methyl)amino)-5-((5-fluoro-4-(1-(5-fluoro-4-(1H-indol-3-yl)pyrimidin-2-yl)-1H-indol-3-yl)pyrimidin-2-yl)amino)phenyl)acetamide], the IC50 was determined as 541 nM.

With `CNc1cc(Nc2ncc(F)c(-c3c[nH]c4ccccc34)n2)ccc1N(C)CCN(C)C` [Compound 260, N^1-(2-(dimethylamino)ethyl)-N^4-(5-fluoro-4-(1H-indol-3-yl)pyrimidin-2-yl)-N^1,N^2-dimethylbenzene-1,2,4-triamine], the IC50 turned out to be 145 nM.

Consider `CC(=O)Nc1cc(Nc2ncc(F)c(-c3cn(C)c4ccccc34)n2)ccc1N(C)CCN(C)C` [Compound 261, N-(2-((2-(dimethylamino)ethyl)(methyl)amino)-5-((5-fluoro-4-(1-methyl-1H-indol-3-yl)pyrimidin-2-yl)amino)phenyl)acetamide], for which the IC50 is 509 nM.

With `CN(C)CCN(C)c1ccc(Nc2ncc(F)c(-c3cn(C)c4ccccc34)n2)cc1N` [Compound 262, N^1-(2-(dimethylamino)ethyl)-N^4-(5-fluoro-4-(1-methyl-1H-indol-3-yl)pyrimidin-2-yl)-N-methylbenzene-1,2,4-triamine], the IC50 came out at 966 nM.

With `CNc1cc(Nc2ncc(F)c(-c3cn(C)c4ccccc34)n2)ccc1N(C)CCN(C)C` [Compound 263, N^1-(2-(dimethylamino)ethyl)-N^4-(5-fluoro-4-(1-methyl-1H-indol-3-yl)pyrimidin-2-yl)-N^1,N^2-dimethylbenzene-1,2,4-triamine], the IC50 is 704 nM.

The experiment is the same for the next values; noted with them: KM12-luc cells, treated with test compounds for 72 hrs, CCK-8 viability; read-out: NTRK IC50 in KM12-luc.
For the compound `CC(=O)Nc1cc(Nc2nc(-c3cn(C)nc3C)c3cc[nH]c3n2)ccc1N(C)CCN(C)C` [Compound 255a, N-(5-(4-(1,3-dimethyl-1H-pyrazol-4-yl)-7H-pyrrolo[2,3-d]pyrimidin-2-ylamino)-2-((2-(dimethylamino)ethyl)(methyl)amino)phenyl)acetamide], the IC50 amounted to 246 nM.

In the case of `CC(=O)Nc1cc(Nc2nc(-c3cn(C)nc3C)c3cc[nH]c3n2)ccc1N(C)CCN(C)C` [Compound 255b, N-(5-(4-(1,3-dimethyl-1H-pyrazol-4-yl)-7H-pyrrolo[2,3-d]pyrimidin-2-ylamino)-2-((2-(dimethylamino)ethyl)(methyl)amino)phenyl)acetamide], the IC50 was above 10000 nM.

Source of the values: patent publication US20250136576A1, “Heterocyclic Compounds and Uses Thereof” (ACEA Therapeutics, Inc., priority 2021, published 2025).
